From patent publication US9169254B2, “Spiroimidazolone derivative” (Chugai Seiyaku Kabushiki Kaisha, priority 2009, dated 2015)

These compounds were tested against T1, human PTH1 receptor (Homo sapiens, UniProt Q03431) (assay: In vitro cAMP signal activity in HKRK-B7 cells (LLC-PK1 cells overexpressing the human PTH1 receptor)). Conditions: HKRK-B7 cells; compound at 1×10^−3 M; cAMP produced as percentage of that produced by hPTH(1-34) at 100 nM.
T1 sequence (Q03431 27-593): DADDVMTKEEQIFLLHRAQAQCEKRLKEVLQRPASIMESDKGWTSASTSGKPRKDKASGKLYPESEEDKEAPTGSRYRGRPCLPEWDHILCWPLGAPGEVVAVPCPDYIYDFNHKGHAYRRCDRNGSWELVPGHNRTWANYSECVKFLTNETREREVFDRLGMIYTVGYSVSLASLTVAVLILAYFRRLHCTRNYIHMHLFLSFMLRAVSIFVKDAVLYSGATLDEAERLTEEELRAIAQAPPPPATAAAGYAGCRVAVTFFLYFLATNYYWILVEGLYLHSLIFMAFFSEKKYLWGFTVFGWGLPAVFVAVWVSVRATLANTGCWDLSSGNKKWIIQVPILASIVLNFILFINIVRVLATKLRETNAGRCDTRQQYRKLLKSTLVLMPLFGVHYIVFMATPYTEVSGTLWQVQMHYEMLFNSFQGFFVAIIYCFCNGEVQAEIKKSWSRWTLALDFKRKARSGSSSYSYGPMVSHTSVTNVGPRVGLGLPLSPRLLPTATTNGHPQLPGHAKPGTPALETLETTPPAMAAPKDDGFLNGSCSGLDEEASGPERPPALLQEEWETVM
Type: cell-based

Row | Compound | cAMP production activity (%)
1 | Cc1cc(N2CCOC2=O)ccc1CCS(=O)(=O)N1CCC2(CC1)N=C(C1CCC(C)CC1)NC2=O (stereo not shown) [Compound 865, 2-(4-methyl-cyclohexyl)-8-{2-[2-methyl-4-(2-oxo-oxazolidin-3-yl)-phenyl]-ethanesulfonyl}-1,3,8-triaza-spiro[4.5]dec-1-en-4-one] | 8.9
2 | Cc1cc(N(C)C(N)=O)cc(C)c1/C=C/S(=O)(=O)N1CCC2(CC1)N=C(C1CCC(CCC(F)(F)F)CC1)NC2=O (stereo not shown) [Compound 723, 1-[3,5-Dimethyl-4-((E)-2-{4-oxo-2-[4-(3,3,3-trifluoro-propyl)-cyclohexyl]-1,3,8-triaza-spiro[4.5]dec-1-ene-8-sulfonyl}-vinyl)-phenyl]-1-methyl-urea] | 95
3 | O=C1NC(C2CCCCC2)=NC12CCN(S(=O)(=O)CCCc1cccc(C(F)(F)F)c1)CC2 [Compound 315, 2-cyclohexyl-8-[3-(3-trifluoromethyl-phenyl)-propane-1-sulfonyl]-1,3,8-triaza-spiro[4.5]dec-1-en-4-one] | 26
4 | Cc1c(CCS(=O)(=O)N2CCC3(CC2)N=C(c2cccc(OC(F)(F)F)c2)NC3=O)cccc1OCCC(O)CO (stereo not shown) [Compound 266, 8-{2-[3-(3,4-dihydroxy-butoxy)-2-methyl-phenyl]-ethanesulfonyl}-2-(3-trifluoromethoxy-phenyl)-1,3,8-triaza-spiro[4.5]dec-1-en-4-one] | 81
5 | Cc1ccc(NCCO)cc1/C=C/S(=O)(=O)N1CCC2(CC1)N=C(C1CCCCC1)NC2=O [Compound 199, 2-cyclohexyl-8-{(E)-2-[5-(2-hydroxy-ethylamino)-2-methyl-phenyl]-ethenesulfonyl}-1,3,8-triaza-spiro[4.5]dec-1-en-4-one] | 46
6 | CC(=O)NC[C@H]1CCC(=O)N1c1cc(C)c(/C=C/S(=O)(=O)N2CCC3(CC2)N=C(c2cccc(OC(F)(F)F)c2)NC3=O)c(C)c1 [Compound 610, N—[(R)-1-(3,5-dimethyl-4-{(E)-2-[4-oxo-2-(3-trifluoromethoxy-phenyl)-1,3,8-triaza-spiro[4.5]dec-1-ene-8-sulfonyl]-vinyl}-phenyl)-5-oxo-pyrrolidin-2-ylmethyl]-acetamide] | 85
7 | COc1ccc(CCCS(=O)(=O)N2CCC3(CC2)N=C(C2CCCCC2)NC3=O)cc1 [Compound 346, 2-Cyclohexyl-8-[3-(4-methoxy-phenyl)-propane-1-sulfonyl]-1,3,8-triaza-spiro[4.5]dec-1-en-4-one] | 28
8 | CC(=O)Nc1ccc(CCS(=O)(=O)N2CCC3(CC2)N=C([C@H]2CC[C@H](CCC(F)F)CC2)NC3=O)c(C)c1 [Compound 955, N-[4-(2-{2-[4-(3,3-Difluoro-propyl)-cyclohexyl]-4-oxo-1,3,8-triaza-spiro[4.5]dec-1-ene-8-sulfonyl}-ethyl)-3-methyl-phenyl]-acetamide] | 79
9 | Cc1cc(C(=O)N2CC(F)(F)C(F)(F)C2)ccc1CCS(=O)(=O)N1CCC2(CC1)N=C(C1CCCCC1)NC2=O [Compound 283, 2-cyclohexyl-8-{2-[2-methyl-4-(3,3,4,4-tetrafluoro-pyrrolidine-1-carbonyl)-phenyl]-ethanesulfonyl}-1,3,8-triaza-spiro[4.5]dec-1-en-4-one] | 63
10 | O=C(CO)NCc1ccc(/C=C/S(=O)(=O)N2CCC3(CC2)N=C(C2CCCCC2)NC3=O)cc1 [Compound 489, N-{4-[(E)-2-(2-cyclohexyl-4-oxo-1,3,8-triaza-spiro[4.5]dec-1-ene-8-sulfonyl)-vinyl]-benzyl}-2-hydroxy-acetamide] | 37
11 | Cc1cc(C(=O)N2CCC2)ccc1CCS(=O)(=O)N1CCC2(CC1)N=C(c1cccc(C(F)(F)F)c1)NC2=O [Compound 381, 8-{2-[4-(azetidine-1-carbonyl)-2-methyl-phenyl]-ethanesulfonyl}-2-(3-trifluoromethyl-phenyl)-1,3,8-triaza-spiro[4.5]dec-1-en-4-one] | 72
12 | Cc1cc(CC(N)=O)ccc1CCS(=O)(=O)N1CCC2(CC1)N=C(C1CCC(C)CC1)NC2=O (stereo not shown) [Compound 750, 2-(3-Methyl-4-{2-[2-(4-methyl-cyclohexyl)-4-oxo-1,3,8-triaza-spiro[4.5]dec-1-ene-8-sulfonyl]-ethyl}-phenyl)-acetamide] | 87

The remaining lines, values ahead:

Row | cAMP production activity (%) | Compound
13 | 96 | Cc1cc(C(=O)N2CCC(C)(O)CC2)cc(C)c1/C=C/S(=O)(=O)N1CCC2(CC1)N=C(c1ccc3c(c1)OC(F)(F)C(F)(F)O3)NC2=O [Compound 1212, 8-{(E)-2-[4-(4-hydroxy-4-methyl-piperidine-1-carbonyl)-2,6-dimethyl-phenyl]-ethenesulfonyl}-2-(2,2,3,3-tetrafluoro-2,3-dihydro-benzo[1,4]dioxin-6-yl)-1,3,8-triaza-spiro[4.5]dec-1-en-4-one]
14 | 107 | Cc1cc(N(C)C(N)=O)cc(C)c1CCS(=O)(=O)N1CCC2(CC1)N=C([C@H]1CCC[C@@H](CCC(C)C)C1)NC2=O [Compound 1146, 1-[3,5-dimethyl-4-(2-{2-[(1S,3S)-3-(3-methyl-butyl)-cyclohexyl]-4-oxo-1,3,8-triaza-spiro[4.5]dec-1-ene-8-sulfonyl}-ethyl)-phenyl]-1-methyl-urea]
15 | 69 | Cc1cc(CN(C)C(N)=O)cc(C)c1CCS(=O)(=O)N1CCC2(CC1)N=C(C1CCC(C)CC1)NC2=O (stereo not shown) [Compound 1390, 1-(3,5-dimethyl-4-{2-[2-(4-methyl-cyclohexyl)-4-oxo-1,3,8-triaza-spiro[4.5]dec-1-ene-8-sulfonyl]-ethyl}-benzyl)-1-methyl-urea]
16 | 100 | Cc1cc(C(=O)N2CCC(C)(O)CC2)cc(C)c1/C=C/S(=O)(=O)N1CCC2(CC1)N=C(c1ccc(F)c(C)c1C)NC2=O [Compound 1192, 2-(4-fluoro-2,3-dimethyl-phenyl)-8-{(E)-2-[4-(4-hydroxy-4-methyl-piperidine-1-carbonyl)-2,6-dimethyl-phenyl]-ethenesulfonyl}-1,3,8-triaza-spiro[4.5]dec-1-en-4-one]
17 | 103 | Cc1cc(N(C)C(N)=O)cc(C)c1CCS(=O)(=O)N1CCC2(CC1)N=C(c1ccc3c(c1)CCCC3)NC2=O [Compound 1039, 1-(3,5-Dimethyl-4-{2-[4-oxo-2-(5,6,7,8-tetrahydro-naphthalen-2-yl)-1,3,8-triaza-spiro[4.5]dec-1-ene-8-sulfonyl]-ethyl}-phenyl)-1-methyl-urea]
18 | 63 | Cc1cc(N(C)C(N)=O)cc(C)c1/C=C/S(=O)(=O)N1CCC2(CC1)N=C(CCCCCCCCC(F)F)NC2=O [Compound 1321, 1-(4-{(E)-2-[2-(9,9-Difluoro-nonyl)-4-oxo-1,3,8-triaza-spiro[4.5]dec-1-ene-8-sulfonyl]-vinyl}-3,5-dimethyl-phenyl)-1-methyl-urea]
19 | 92 | Cc1cc(N(C)C(N)=O)cc(C)c1/C=C/S(=O)(=O)N1CCC2(CC1)N=C(CCCCCCCCC1(C)COC1)NC2=O [Compound 1023, 1-[3,5-Dimethyl-4-((E)-2-{2-[8-(3-methyl-oxetan-3-yl)-octyl]-4-oxo-1,3,8-triaza-spiro[4.5]dec-1-ene-8-sulfonyl}-vinyl)-phenyl]-1-methyl-urea]
